Laboratory results taken from ChEMBL document CHEMBL1145498, “A systematic interaction map of validated kinase inhibitors with Ser/Thr kinases” (Proc Natl Acad Sci U S A, 2007).

Legend:
[1] = target: 5'-AMP-activated protein kinase catalytic subunit alpha-2 (Homo sapiens) (UniProt P54646)
[2] = target: Calcium/calmodulin-dependent protein kinase type II subunit beta (Homo sapiens) (UniProt Q13554)
[3] = target: Calcium/calmodulin-dependent protein kinase type II subunit gamma (Homo sapiens) (UniProt Q13555)
[4] = target: Glycogen synthase kinase-3 beta (Homo sapiens, UniProt P49841)
[5] = target: Dual specificity mitogen-activated protein kinase kinase 2 (Homo sapiens, UniProt P36507)
[6] = target: T1, Mitogen-activated protein kinase kinase kinase 5 (Homo sapiens) (UniProt Q99683)
T1 sequence (whole entry): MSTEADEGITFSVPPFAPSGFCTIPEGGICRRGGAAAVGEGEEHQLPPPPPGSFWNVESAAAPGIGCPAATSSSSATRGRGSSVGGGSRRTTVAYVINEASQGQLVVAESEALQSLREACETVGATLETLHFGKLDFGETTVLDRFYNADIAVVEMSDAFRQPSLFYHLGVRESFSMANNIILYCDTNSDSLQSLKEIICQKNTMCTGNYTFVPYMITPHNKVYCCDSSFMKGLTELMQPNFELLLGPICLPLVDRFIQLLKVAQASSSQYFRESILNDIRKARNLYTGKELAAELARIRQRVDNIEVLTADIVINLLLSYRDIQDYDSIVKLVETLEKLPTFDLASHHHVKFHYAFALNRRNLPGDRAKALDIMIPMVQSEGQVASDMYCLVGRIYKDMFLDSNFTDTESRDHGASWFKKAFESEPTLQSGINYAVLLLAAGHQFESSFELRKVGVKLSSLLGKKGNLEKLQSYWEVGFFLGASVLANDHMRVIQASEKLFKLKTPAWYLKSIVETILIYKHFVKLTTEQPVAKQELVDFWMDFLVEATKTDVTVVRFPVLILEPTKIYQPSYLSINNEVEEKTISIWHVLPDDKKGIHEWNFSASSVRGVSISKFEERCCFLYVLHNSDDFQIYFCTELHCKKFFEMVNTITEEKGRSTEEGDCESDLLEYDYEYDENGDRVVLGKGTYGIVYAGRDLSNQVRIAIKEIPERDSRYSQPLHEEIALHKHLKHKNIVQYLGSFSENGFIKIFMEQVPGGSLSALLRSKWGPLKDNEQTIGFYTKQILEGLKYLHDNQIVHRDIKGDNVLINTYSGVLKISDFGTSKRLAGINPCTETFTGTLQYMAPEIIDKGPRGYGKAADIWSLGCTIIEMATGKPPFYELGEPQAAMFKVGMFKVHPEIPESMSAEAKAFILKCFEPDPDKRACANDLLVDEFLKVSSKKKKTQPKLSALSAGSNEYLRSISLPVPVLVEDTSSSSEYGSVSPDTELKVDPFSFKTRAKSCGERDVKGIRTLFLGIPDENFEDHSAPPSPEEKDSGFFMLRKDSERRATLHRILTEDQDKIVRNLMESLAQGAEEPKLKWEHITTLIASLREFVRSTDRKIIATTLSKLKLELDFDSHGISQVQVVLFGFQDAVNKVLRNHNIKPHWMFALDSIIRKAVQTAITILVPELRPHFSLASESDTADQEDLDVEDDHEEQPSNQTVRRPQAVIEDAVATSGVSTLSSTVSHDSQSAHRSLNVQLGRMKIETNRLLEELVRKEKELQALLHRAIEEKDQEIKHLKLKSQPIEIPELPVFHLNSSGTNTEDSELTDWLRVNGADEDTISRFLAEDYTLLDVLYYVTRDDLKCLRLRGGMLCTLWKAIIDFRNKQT

[7] = target: Mitogen-activated protein kinase 3 (Homo sapiens, UniProt P27361)
[8] = target: Serine/threonine-protein kinase 26 (Homo sapiens) (UniProt Q9P289)
[9] = target: T2, Serine/threonine-protein kinase Nek2 (Homo sapiens) (UniProt P51955)
T2 sequence (whole entry): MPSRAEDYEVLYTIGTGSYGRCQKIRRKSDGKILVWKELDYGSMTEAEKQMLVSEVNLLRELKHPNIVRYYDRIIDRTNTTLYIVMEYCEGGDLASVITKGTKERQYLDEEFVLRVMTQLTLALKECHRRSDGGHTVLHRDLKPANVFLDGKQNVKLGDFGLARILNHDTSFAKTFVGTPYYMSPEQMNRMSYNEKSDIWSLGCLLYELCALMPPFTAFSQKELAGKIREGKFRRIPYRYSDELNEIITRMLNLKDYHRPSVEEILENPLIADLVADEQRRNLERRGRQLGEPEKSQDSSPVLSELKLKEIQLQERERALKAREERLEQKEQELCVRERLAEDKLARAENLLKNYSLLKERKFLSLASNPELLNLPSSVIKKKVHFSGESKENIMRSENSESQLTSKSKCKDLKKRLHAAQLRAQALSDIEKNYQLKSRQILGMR

[10] = target: Serine/threonine-protein kinase RIO2 (Homo sapiens) (UniProt Q9BVS4)
[11] = target: Ribosomal protein S6 kinase alpha-3 (Homo sapiens) (UniProt P51812)
[12] = target: Serine/threonine-protein kinase 38 (Homo sapiens) (UniProt Q15208)
[13] = target: T3, Serine/threonine-protein kinase VRK3 (Homo sapiens) (UniProt Q8IV63)
T3 sequence (whole entry): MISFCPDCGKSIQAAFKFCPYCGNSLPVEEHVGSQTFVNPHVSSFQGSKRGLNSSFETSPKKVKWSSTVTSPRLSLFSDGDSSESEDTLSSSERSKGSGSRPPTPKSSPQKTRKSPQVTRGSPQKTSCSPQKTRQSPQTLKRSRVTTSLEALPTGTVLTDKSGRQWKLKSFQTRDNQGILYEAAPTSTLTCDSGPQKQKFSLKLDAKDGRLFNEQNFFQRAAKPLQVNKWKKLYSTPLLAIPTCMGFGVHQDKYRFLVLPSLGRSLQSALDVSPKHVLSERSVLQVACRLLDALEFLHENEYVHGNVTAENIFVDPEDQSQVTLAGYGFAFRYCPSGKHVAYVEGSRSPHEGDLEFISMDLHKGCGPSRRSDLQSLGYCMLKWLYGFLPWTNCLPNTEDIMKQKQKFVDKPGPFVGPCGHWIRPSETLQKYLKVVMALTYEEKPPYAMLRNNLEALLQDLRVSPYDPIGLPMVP

[14] = target: Serine/threonine-protein kinase 25 (Homo sapiens) (UniProt O00506)

Sequence of Calcium/calmodulin-dependent protein kinase type II subunit gamma (Homo sapiens) (Q13555 whole entry): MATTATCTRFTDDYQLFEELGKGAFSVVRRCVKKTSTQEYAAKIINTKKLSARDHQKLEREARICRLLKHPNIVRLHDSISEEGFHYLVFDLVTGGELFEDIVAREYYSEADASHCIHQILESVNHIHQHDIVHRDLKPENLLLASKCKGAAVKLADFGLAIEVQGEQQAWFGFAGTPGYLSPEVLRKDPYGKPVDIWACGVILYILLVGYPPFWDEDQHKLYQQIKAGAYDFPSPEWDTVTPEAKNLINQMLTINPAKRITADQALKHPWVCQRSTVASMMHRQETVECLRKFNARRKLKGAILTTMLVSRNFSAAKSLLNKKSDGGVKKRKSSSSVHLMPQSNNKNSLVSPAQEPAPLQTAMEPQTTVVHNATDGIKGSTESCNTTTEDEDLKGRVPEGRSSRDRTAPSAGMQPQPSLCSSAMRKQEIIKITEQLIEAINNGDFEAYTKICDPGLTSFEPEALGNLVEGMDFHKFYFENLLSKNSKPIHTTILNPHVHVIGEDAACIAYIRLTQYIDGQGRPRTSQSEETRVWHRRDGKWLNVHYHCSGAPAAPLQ
Sequence of Serine/threonine-protein kinase 38 (Homo sapiens) (Q15208 2-465 limits assumed): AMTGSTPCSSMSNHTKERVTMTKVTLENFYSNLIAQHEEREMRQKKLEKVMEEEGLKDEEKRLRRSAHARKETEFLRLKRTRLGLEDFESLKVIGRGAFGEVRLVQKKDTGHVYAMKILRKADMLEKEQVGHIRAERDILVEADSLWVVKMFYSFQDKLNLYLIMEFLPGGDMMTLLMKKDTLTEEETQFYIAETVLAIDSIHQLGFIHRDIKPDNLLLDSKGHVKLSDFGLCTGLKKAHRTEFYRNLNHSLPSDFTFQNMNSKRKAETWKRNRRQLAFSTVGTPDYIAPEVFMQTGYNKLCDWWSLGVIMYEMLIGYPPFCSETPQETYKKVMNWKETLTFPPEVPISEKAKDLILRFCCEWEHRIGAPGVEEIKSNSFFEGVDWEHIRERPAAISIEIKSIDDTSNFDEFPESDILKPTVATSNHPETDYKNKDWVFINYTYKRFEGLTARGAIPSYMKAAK
Sequence of 5'-AMP-activated protein kinase catalytic subunit alpha-2 (Homo sapiens) (P54646 whole entry, looked up): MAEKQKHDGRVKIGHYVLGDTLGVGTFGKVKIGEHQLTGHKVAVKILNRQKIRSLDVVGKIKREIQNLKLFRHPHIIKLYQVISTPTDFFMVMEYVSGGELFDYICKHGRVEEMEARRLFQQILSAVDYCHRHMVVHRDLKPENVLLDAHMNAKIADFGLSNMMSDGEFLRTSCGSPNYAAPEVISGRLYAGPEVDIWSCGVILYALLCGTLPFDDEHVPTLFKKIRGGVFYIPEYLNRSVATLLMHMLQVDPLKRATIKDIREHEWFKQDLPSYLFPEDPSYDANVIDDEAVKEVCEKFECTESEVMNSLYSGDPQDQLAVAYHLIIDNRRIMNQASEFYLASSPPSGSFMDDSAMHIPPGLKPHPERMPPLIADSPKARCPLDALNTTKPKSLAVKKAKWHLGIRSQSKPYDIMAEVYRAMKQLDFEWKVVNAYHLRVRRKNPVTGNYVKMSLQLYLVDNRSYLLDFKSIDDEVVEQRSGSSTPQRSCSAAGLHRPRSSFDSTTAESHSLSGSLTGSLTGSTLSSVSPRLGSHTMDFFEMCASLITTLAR
Sequence of Ribosomal protein S6 kinase alpha-3 (Homo sapiens) (P51812 whole entry): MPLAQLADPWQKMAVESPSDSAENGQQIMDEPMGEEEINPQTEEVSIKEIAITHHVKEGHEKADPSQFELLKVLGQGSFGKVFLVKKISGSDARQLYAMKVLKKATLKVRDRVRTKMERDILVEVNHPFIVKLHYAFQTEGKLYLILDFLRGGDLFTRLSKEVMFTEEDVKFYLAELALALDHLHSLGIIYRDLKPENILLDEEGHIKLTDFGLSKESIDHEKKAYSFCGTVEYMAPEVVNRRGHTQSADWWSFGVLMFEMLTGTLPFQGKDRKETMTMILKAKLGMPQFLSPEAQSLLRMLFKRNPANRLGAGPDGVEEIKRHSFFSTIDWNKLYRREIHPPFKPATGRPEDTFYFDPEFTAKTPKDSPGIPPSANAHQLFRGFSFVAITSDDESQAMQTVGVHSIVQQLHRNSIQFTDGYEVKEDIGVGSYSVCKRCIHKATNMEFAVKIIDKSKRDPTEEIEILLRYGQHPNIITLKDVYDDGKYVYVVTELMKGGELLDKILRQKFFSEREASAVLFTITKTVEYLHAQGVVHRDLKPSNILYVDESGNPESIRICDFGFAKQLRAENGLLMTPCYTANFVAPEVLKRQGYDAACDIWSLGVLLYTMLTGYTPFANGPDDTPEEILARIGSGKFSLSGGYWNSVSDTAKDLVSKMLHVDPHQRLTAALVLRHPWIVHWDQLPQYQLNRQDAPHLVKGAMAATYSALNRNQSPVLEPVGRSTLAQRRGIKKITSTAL
Sequence of Serine/threonine-protein kinase RIO2 (Homo sapiens) (Q9BVS4 whole entry, looked up): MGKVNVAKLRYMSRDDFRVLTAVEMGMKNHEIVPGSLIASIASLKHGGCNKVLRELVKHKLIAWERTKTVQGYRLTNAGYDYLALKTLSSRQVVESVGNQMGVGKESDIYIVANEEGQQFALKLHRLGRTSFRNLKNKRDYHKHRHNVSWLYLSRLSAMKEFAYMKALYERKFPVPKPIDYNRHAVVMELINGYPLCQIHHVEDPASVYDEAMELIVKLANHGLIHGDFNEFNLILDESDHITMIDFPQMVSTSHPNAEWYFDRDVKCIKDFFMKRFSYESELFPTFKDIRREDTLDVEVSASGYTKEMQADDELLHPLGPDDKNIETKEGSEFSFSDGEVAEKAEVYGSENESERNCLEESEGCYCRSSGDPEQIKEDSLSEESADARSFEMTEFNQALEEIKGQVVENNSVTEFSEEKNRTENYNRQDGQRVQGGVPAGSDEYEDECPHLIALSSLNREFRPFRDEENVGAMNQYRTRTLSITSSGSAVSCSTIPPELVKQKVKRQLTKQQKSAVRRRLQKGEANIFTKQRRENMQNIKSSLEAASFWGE
Sequence of Mitogen-activated protein kinase 3 (P27361 whole entry): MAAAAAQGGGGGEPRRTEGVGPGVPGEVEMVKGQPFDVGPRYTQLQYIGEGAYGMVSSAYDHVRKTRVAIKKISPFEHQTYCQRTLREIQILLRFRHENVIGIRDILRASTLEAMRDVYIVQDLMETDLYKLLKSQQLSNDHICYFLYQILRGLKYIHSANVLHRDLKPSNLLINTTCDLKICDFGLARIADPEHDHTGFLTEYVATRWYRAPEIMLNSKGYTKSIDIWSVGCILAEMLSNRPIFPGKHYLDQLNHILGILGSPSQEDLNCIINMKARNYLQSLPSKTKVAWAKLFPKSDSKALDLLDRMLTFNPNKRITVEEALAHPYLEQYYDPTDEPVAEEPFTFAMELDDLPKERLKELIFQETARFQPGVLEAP
Sequence of Dual specificity mitogen-activated protein kinase kinase 2 (P36507 whole entry): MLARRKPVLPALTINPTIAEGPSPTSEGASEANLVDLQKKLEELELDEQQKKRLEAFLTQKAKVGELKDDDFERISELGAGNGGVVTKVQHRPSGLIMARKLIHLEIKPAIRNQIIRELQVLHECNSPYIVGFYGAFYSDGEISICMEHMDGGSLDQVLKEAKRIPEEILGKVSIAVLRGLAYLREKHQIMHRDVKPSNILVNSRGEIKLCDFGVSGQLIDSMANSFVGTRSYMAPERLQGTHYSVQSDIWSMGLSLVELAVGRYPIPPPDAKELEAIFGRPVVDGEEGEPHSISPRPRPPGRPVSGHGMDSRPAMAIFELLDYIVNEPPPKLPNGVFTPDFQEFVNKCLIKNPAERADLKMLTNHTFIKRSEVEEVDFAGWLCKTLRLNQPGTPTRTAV
Sequence of Serine/threonine-protein kinase 26 (Homo sapiens) (Q9P289 2-416 limits assumed): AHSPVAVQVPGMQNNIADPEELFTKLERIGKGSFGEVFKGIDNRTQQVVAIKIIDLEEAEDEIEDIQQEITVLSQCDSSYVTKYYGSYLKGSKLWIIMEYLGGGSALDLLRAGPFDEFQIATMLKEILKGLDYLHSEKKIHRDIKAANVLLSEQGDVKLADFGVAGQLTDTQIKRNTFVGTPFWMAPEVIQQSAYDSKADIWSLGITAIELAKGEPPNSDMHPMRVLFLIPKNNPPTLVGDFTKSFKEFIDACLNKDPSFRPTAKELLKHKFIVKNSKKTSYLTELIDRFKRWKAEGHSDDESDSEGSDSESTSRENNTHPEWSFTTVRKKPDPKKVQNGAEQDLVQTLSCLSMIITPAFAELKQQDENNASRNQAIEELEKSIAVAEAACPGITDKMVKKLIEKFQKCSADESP
Sequence of Calcium/calmodulin-dependent protein kinase type II subunit beta (Homo sapiens) (Q13554 whole entry): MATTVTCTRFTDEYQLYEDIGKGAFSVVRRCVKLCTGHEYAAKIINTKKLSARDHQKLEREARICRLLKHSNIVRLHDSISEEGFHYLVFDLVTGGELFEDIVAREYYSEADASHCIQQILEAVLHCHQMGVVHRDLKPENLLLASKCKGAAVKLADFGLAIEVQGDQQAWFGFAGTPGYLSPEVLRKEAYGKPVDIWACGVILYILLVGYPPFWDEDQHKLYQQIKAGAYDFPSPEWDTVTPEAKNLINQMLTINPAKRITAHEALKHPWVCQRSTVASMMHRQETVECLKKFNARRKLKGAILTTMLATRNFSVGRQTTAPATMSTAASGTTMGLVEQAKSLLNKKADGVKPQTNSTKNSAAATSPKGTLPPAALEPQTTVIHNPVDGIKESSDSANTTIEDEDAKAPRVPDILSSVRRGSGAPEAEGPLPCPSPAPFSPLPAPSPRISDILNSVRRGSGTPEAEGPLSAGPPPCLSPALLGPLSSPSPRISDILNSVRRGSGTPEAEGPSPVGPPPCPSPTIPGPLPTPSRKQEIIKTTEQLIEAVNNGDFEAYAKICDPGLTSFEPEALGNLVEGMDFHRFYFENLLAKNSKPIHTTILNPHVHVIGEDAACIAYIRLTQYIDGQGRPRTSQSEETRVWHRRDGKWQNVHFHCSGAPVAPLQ

Row | SMILES | ΔTm [1] [°C] | ΔTm [2] [°C] | ΔTm [3] [°C] | ΔTm [4] [°C] | ΔTm [5] [°C] | ΔTm [6] [°C] | ΔTm [7] [°C] | ΔTm [8] [°C] | ΔTm [9] [°C] | ΔTm [10] [°C] | ΔTm [11] [°C] | ΔTm [12] [°C] | ΔTm [13] [°C] | ΔTm [14] [°C]
1 | Cn1cc(C2=C(c3cn(CCCN)c4ccccc34)C(=O)NC2=O)c2ccccc21 | 1.4 | 1.7 | 3.7 | 11.9 | 0.6 | 0.3 | -0.3 | 2.1 | 0.9 | 0.5 | 1.9 | 0.2 | 0.9 | 2.3
2 | Cn1cc(C2=C(c3cn(CCCSC(=N)N)c4ccccc34)C(=O)NC2=O)c2ccccc21 | 2.1 | 2 | 5.2 | 12.8 | 0.9 | 0.3 | 0.7 | 2.3 | 0.4 | 3.1 | 2.1 | 0.8 | 0.8 | 3.9
3 | OC[C@H]1O[C@@H](n2cnc3cc(Cl)c(Cl)cc32)[C@H](O)[C@@H]1O | -0.7 | -0.1 | 0.1 | 0.7 | -0.3 | -0.4 | 0.4 | -0.3 | 0.5 | 0.7 | 0 | 0.2 | -0.2 | 0
4 | Oc1cccc(-c2nc(N3CCOCC3)c3oc4ncccc4c3n2)c1 | -0.1 | 0.1 | 0.1 | 0.1 | 0.3 | -0.4 | 0 | 0.2 | 0.5 | -0.3 | -0.6 | 0 | 0.2 | -0.6
5 | COc1cc2ncnc(Nc3cccc(Br)c3)c2cc1OC | -0.5 | 0 | 0.1 | 1.5 | 0.3 | 1.4 | 0.6 | 1.2 | 0.6 | 1.2 | 0.1 | 0.4 | 0.3 | 1.4
